According to patent US20010004643A1, “Pharmaceutical composition with sotalol combination and their use in treatment of cardiac ailments” (priority 1999, published 2001):
Entries after “also recorded” stand apart in the source; their conditions may differ. Marks after values point to notes of the source that are not given here.

Key:
[1] = tested on: beta adrenergic blockade, isolated right auricle preparation of rabbit; experiment: Beta blocking potency (pA2 against isoprenaline) in isolated rabbit right auricle; details: isoprenaline chronotropic response, Schild's plot, listed as 2:1
Experimental: Estimation of the beta blockade of various ratios of d- and l- isomers of sotalol was carried out in the isolated right auricle preparation of rabbit. The spontaneously beating right atrium was dissected and mounted in a 20 ml tissue bath. The resting tension on the atria was set at 1 g. The contractions were recorded using a force displacement transducer. The spontaneous contractions of the right atria were recorded isometrically and the heart rate was obtained as a derived parameter using a ratemeter that gave the output in beats per minute. Six different ratios of d and l isomers were investigated (1:1, 2:1, 3:1, 4:1, 5:1 and 1:0). Dose-response-curves (DRC) for isoprenaline in the isolated atria, using the chronotropic response were determined by cumulative addition of isoprenaline. The pA2 values of each of the ratios were estimated using the classical Schild's plot (Schild, 1957) and the values are shown in Table 1.

[2] = tested on: ouabain induced arrhythmia (VT, VF, mortality); experiment: Ouabain induced arrhythmia model in guinea pig; format: in vivo; details: for % INCIDENCE OF MORTALITY: mortality at 60 min; for deaths due to conduction block (60 min), actual incidence (value in parenthesis) / deaths due to tachyarrhythmia (60 min), actual incidence (value in parenthesis): number of animals; for % INCIDENCE OF VF / % INCIDENCE OF VT: ouabain 240 μg/kg in three doses, observed one hour; for DEATHS DUE TO CONDUCTION BLOCK (60 MIN) Percentage / DEATHS DUE TO TACHYARRHYTHMIA (60 MIN) Percentage: percentage deaths out of total mortality
Text: Method: Guinea pigs (Dunken Hartley) of either sex weighing between 400 and 500 g were used for the study. The animals were anesthetized with urethane (1.25 g/kg. i.p.). The left common carotid artery and left jugular vein were cannulated for arterial blood pressure monitoring and intravenous access respectively. Lead II electrocardiogram, arterial blood pressure, mean arterial blood pressure (MABP), heart rate were monitored throughout the experiment.
After initial surgical preparations and allowing 30 minutes for the animal to stabilise the first dose of ouabain (90 μg/kg) was administered over a period of one minute. After the interval of thirty minutes, second dose of ouabain (60 μg/kg) was administered over a period of one minute. One minute after this dose, 0.5 ml saline (in control experiments) was administered over a period of one minute. After an interval of 10 minutes a third dose of ouabain (90 μg/kg) was administered over a period of one minute. […] The test compounds were administered to animals in test group in place of saline to evaluate their antiarrhythmic potential. From the ECG recordings, the incidence of VT, VF and mortality were recorded. The doses of ratios of sotalol isomers studied were 0.1, 0.5 and 2.5 mg/kg.
Interpretation of ECG recordings: Minor disturbance in rhythm was not considered while evaluating ventricular tachyarrhythmias. A run of more than 3 ventricular ectopic beats having wide QRS complexes associated with partial haemodynamic collapse was considered as Ventricular Tachycardia (VT). Total morphological irregularity of repetitive complexes for at least six cycles associated with complete haemodynamic collapse was considered as Ventricular Fibrillation (VF). Successful arrhythmia protection was defined as no occurrence of VT and VF from the injection of saline/test drug till the end of the experiment.
Statistics: Chi square test with continuity correction at 95% confidence limit was applied to find out the statistical significance between control and test groups for incidence of VT, VF and mortality. Whenever, any of the value in a cell was less than 5, Fischer's exact probability test was used.
Results: Different ratios of sotalol in the dose range from 0.02 mg/kg to 12.5 mg/kg were studied in individual groups of animals. In all 18 groups were studied and at least 6 animals were used in each group. In control animals ouabain 240 μg/kg in three divided doses induced reproducible ventricular tachyarrhythmias in guinea pigs. It was observed that ventricular arrhythmias appeared after the administration of the third dose. Guinea pigs which responded early i.e. before or within 1 min. of administration of the second dose, were considered early responders and were not included in the study. […] In the study, control experiments were carried out randomly interspersed in test groups. Among the 42 control animals the incidence of VT was 81%, incidence of VF was 71.4% and the incidence of mortality at 60 minutes was 61.9%.

[3] = 0.5 mg/kg, number of animals of the group
[4] = 2.5 mg/kg, number of animals of the group
[5] = guinea pig, in vivo, listed as 2:1 ratio (d:l)

Compound: CC(C)NCC(O)c1ccc(NS(C)(=O)=O)cc1 (stereo not drawn) [2:1 RATIO, N-[4-[1-hydroxy-2-[(1-methylethyl)amino]ethyl]phenyl] methane sulfonamide]
- pA2 Mean [1]: 6.28
- protection against VF ([2]; 0.5 mg/kg): some protection, it was not complete
- actual incidence of mortality (value in parenthesis) ([2]; 0.5 mg/kg, 60 min, number of animals of the group): (3)
- protection against ouabain induced VT ([2]; 0.5 mg/kg, listed as 2:1 ratio (d:l)): some protection, it was not significant
- % INCIDENCE OF MORTALITY ([2]; 0.5 mg/kg): 50.0%
- deaths due to conduction block (60 min), actual incidence (value in parenthesis) ([2]; 0.5 mg/kg): (3)
- deaths due to tachyarrhythmia (60 min), actual incidence (value in parenthesis) ([2]; 0.5 mg/kg): (0)
- actual incidence of VF (value in parenthesis) [2, 3]: (2)
- actual incidence of VT (value in parenthesis) [2, 3]: (3)
- % INCIDENCE OF VF ([2]; 0.5 mg/kg): 33.3%
- % INCIDENCE OF VT ([2]; 0.5 mg/kg): 50.0%
- DEATHS DUE TO CONDUCTION BLOCK (60 MIN) Percentage ([2]; 0.5 mg/kg): 100.0%
- DEATHS DUE TO TACHYARRHYTHMIA (60 MIN) Percentage ([2]; 0.5 mg/kg): 00.0%
- protection against mortality ([2]; 2.5 mg/kg): protected significantly
- protection from deaths due to tachyarrhythmias ([2]; 2.5 mg/kg): completely protected
- protection against arrhythmias (VT and VF) ([2]; 2.5 mg/kg, listed as 2:1): completely protects; also recorded: complete protection
- % INCIDENCE OF MORTALITY ([2]; 2.5 mg/kg): 16.6%
- % INCIDENCE OF MORTALITY ([2]; 2.5 mg/kg, listed as 2:1): 16.6%
- deaths due to conduction block (60 min), actual incidence (value in parenthesis) ([2]; 2.5 mg/kg): (1)
- deaths due to tachyarrhythmia (60 min), actual incidence (value in parenthesis) ([2]; 2.5 mg/kg): (0)
- actual incidence of VF (value in parenthesis) [2, 4]: (0)*
- actual incidence of VT (value in parenthesis) [2, 4]: (0)*
- % INCIDENCE OF VF ([2]; 2.5 mg/kg): 00.0%
- % INCIDENCE OF VT ([2]; 2.5 mg/kg): 00.0%
- DEATHS DUE TO CONDUCTION BLOCK (60 MIN) Percentage ([2]; 2.5 mg/kg): 100.0%
- DEATHS DUE TO TACHYARRHYTHMIA (60 MIN) Percentage ([2]; 2.5 mg/kg): 00.0%
- dose at which complete protection against VT was observed [2, 5]: 2.5 mg/kg
- dose that completely protected against VF [2, 5]: 2.5 mg/kg
- cause of deaths ([2]; no dose stated): due to conduction abnormalities
- mortality compared with control groups ([2]; no dose stated): less than that of control groups
